Source: patent publication US20090275527A1, “SKIN AGING TREATMENT COMPRISING PAEONIFLORIN” (LG HOUSEHOLD & HEALTH CARE LTD., priority 2004, published 2009)
Marks after values point to notes of the source that are not given here.

Tests used:
hairless mice [1] = test: Prevention of wrinkles caused by UV; format: in vivo; conditions: 0.2% in 1,3-butylene glycol; UV 2MED, 12 weeks, three days a week
Protocol: Prevention effect of wrinkles caused by UV of paeoniflorin prepared in Preparation Example 1 was evaluated as follows using hairless mice. UV was irradiated to hairless mice with a solar stimulator at 2MED (minimum erythema dose). Irradiation was performed for 12 weeks, three days a week. Of the total of 10 mice, 0.2% paeoniflorin dissolved in 1,3-butylene glycol was applied to the sample treatment group and only 1,3-butylene glycol was applied to the control group. Wrinkles of each group were compared 12 weeks later.

[2] = system: normal human keratinocytes; test: Prevention of DNA impairment caused by UV (electrophoresis tail moment) in cultured keratinocytes; format: cell-based; conditions: for Average tail moment (n = 50) / Prevention effect (%): 12 hours, then 60 mJ UVB
Protocol: Prevention effect of DNA impairment caused by UV of paeoniflorin prepared in Preparation Example 1 was determined for normal human skin keratinocytes.
Cultured normal human keratinocytes were treated with paeoniflorin of concentrations thereof for 12 hours. The culture medium was removed and the cells were washed with PBS. 60 mJ UVB was irradiated and DNA impairment of the cells was checked. If there is DNA strand breakage inside the cell nucleus, an extended tail is shown toward the positive electrode during electrophoresis. Thus, impairment of DNA can be easily detected by electrophoresis. The average of tail moment of 50 randomly selected cells was used as a control value. The tail moment of paeoniflorin-treated cells was averaged. The control value and the resultant test value were put in Equation 2 below to calculate paeoniflorin's prevention effect of DNA impairment caused by UV.
Prevention effect (%)=(Control value−Test value)/(Control value)×100 [Equation 2]

Keratinocytes = test: Prevention against skin cell death and aging (X-Gal staining, flow cytometer), keratinocytes; format: cell-based, mouse
Protocol: (§1) Skin tissue was taken from a red skin mouse 3 days or less old. Hypodermic tissue was removed and the skin was treated with 0.25% trypsin for 12 hours. The skin was separated into the epidermis and the dermis. The epidermis was cultured to 75% confluence in an epidermis culture medium (K-SFM). The dermis was further treated with trypsin at 37° C. for 2 hours. Fibroblasts were taken from the dermis and cultured to 75% confluence in a DMEM culture medium containing 10% serum. Cell growth and division status was confirmed by specifically staining cell DNA. β-Gal is a material for specifically marking aged skin cells. Young cells and cells in the resting phase are left intact and only aged cells are specifically stained. Cultured keratinocytes and fibroblasts were treated with a minimum amount of X-Gal, respectively, and stained at 37 for 24 hours. Aged skin cells were stained to deep blue in 2-4 hours and gave the best result in 12-16 hours (see Proc. Natl. Acad. Sci. USA, 1995, 92: 9363-7). Then, stained cells (aged cells), living cells and dead cells were counted with a flow cytometer. In Table 4, “blank” refers to the control group containing no cells.

[3] = system: GSH-Px (total glutathione peroxidase); test: Guinea pig back skin application for 30 days: GSH-Px (DNTB method); format: in vivo; conditions: 3 (w/v)% sample, Content by Equation 1 relative to blank group
Protocol: (§2) 10 g of stearic acid (C18H36O2), 70 mL of water and 20 mL of glycerol, each heated to 80, were mixed homogeneously. After stirring for about 1 minute, 3 (w/v)% of paeoniflorin or vitamin E (positive control group) was added. After adding 0.1 (w/v)% of methyl paraben, stirring was performed for 1 minute. 1 mL of KOH was slowly added. After considerable emulsification had proceeded, stirring was performed until the temperature reached about 50.
(§3) Guinea pigs were grouped, each group consisting of 3 males and 3 females. An area of 3×3 cm^2 was shaved from the back of each guinea pig. For each guinea pig, the left side was treated with the sample prepared above and the right side was treated as a negative control group and a positive control group. Application was performed at 8:00 H and 16:00 H each day. Application was performed for 30 days, at about 5 mg/cm^2 each. On the 31st day, skin was taken from the back of each animal. Subcutaneous fat tissue was removed and collagen and lipid peroxide contents were measured with […]. 3) Result
(§4) SOD (superoxide dismutase) and GSH-Px (total glutathione peroxidase) are important antioxidative enzymes in living organisms. […]
(§5) MDA was detected using thiobarboturic acid. GSH-Px and SOD contents were measured by DNTB (5,5′-dithio-bis-2-nitrobenzoic acid) and nitrate reduction methods, respectively. […]

fibroblasts [4] = test: Prevention against skin cell death and aging (X-Gal staining, flow cytometer), fibroblasts; format: cell-based, mouse
Protocol: as §1

guinea pig back skin = test: Guinea pig back skin application for 30 days: appearance, histology, collagen (HYP) content; format: in vivo; conditions: 3 (w/v)% sample; for Increase of collagenous fiber bundles (%) / Increase of collagen content in dermis (%): about 5 mg/cm^2 twice a day; for Increase of collagen content in dermis (%): HYP content
Protocol: as §2, §3
Back skin tissue was impregnated with paraffin and stained with HE (hematoxylin-eosin). Change of the skin tissue was observed. Skin collagen content was determined by adding 6 N hydrochloric acid to skin and measuring the HYP (hydroxyproline) content according to the chloramine-T oxidation method.

MDA (malondialdehyde) = test: Guinea pig back skin application for 30 days: lipid peroxide MDA (thiobarboturic acid); format: in vivo; conditions: 3 (w/v)% sample, Content by Equation 1 relative to blank group
Protocol: as §2, §3, §4, §5

[5] = system: SOD (superoxide dismutase); test: Guinea pig back skin application for 30 days: SOD (nitrate reduction method); format: in vivo; conditions: 3 (w/v)% sample, Content by Equation 1 relative to blank group
Protocol: as §2, §3, §4, §5

hairless mice [6] = test: Prevention of DNA impairment caused by UV (in vivo); conditions: after 6 days 1 J UVB
Protocol: Prevention effect (%)=(Control value−Test value)/(Control value)×100 [Equation 2] Paeoniflorin dissolved in 80% ethanol was applied to the back of hairless mice. After 6 days, 1 J UVB was irradiated. Skin cells were taken and DNA impairment was measured.

fibroblasts [7] = test: Effect on fibroblast cell activity (MTT analysis); format: cell-based, mouse; conditions: non-treated = 0
Protocol: Skin tissue was taken from a red skin mouse 3 days or less old. Hypodermic tissue was removed and the skin was treated with 0.25% trypsin for 12 hours. The skin was separated into the epidermis and the dermis. The epidermis was cultured to 75% confluence in an epidermis culture medium (K-SFM). The dermis was further treated with trypsin at 37° C. for 2 hours. Fibroblasts were taken from the dermis and cultured to 75% confluence in a DMEM culture medium containing 10% serum. Paeoniflorin prepared in Preparation Example 1 was dissolved in the cultured keratinocytes and fibroblasts and treated to 0.0004 M. Cell count was measured by MTT [3-(4,5-dimethylthiazol-2-yl)-2,5-diphenyltetrazolium bromide)] analysis to determine cell activity. A non-treated group and a group treated with 0.002 M vitamin C were tested as control groups.

[8] = 0.01% in 80% ethanol applied to the back
[9] = 0.1% in 80% ethanol applied to the back
[10] = 1% in 80% ethanol applied to the back

For `C[C@@]12C[C@@]3(O)O[C@@H](O1)[C@]1(COC(=O)c4ccccc4)[C@H]3C[C@@]12O[C@@H]1O[C@H](CO)[C@@H](O)[C@H](O)[C@H]1O` [Paeoniflorin], the “Not improved (number of mice, wrinkles compared to the control group)” value (hairless mice [1]) was 0, the “Significantly improved (number of mice, wrinkles compared to the control group)” value (hairless mice [1]) was 6 and the “Slightly improved (number of mice, wrinkles compared to the control group)” value (hairless mice [1]) was 4. The “Average tail moment (n = 50)” value ([2]; 0.0001%) was 7.951 ± 1.887, the “Prevention effect (%)” value ([2]; 0.0001%) was 16.9% and the “Average tail moment (n = 50)” value ([2]; 0.001%) was 7.710 ± 2.161. The “Prevention effect (%)” value ([2]; 0.001%) was 19.4%, the “Average tail moment (n = 50)” value ([2]; 0.01%) was 7.409 ± 2.395 and the “Prevention effect (%)” value ([2]; 0.01%) was 22.6%. The “Average tail moment (n = 50)” value ([2]; 0.1%) was 7.320 ± 2.534, the “Prevention effect (%)” value ([2]; 0.1%) was 23.5% and the “DNA impairment prevention effect” value ([2]; treatment concentration range of 0.0001% to 0.1%) was “at least 16.9%”. It also gave a Cell aging rate (Keratinocytes; 0.0005 M) of 24.7%, a Cell death rate (Keratinocytes; 0.0005 M) of 12.3% and a Cell growth rate (Keratinocytes; 0.0005 M) of 55.3%. For the same compound, the GSH-Px [3] was 29.51*, the Cell aging rate (fibroblasts [4]; 0.0005 M) was 17.2% and the Cell death rate (fibroblasts [4]; 0.0005 M) was 11.5%. The Cell growth rate (fibroblasts [4]; 0.0005 M) was 18.4%, the “Cell organelles observed in the dermis” value (guinea pig back skin) was “Expansion of RER (rough endoplasmie reticulum) and increase of mitochondria” and the “Histological observation (HE): change in the dermis” value (guinea pig back skin) was “an increase in collagenous fiber bundles was observed in the dermis”. For the same compound, the “Histological observation (HE): change in the epidermis” value (guinea pig back skin) was “no significant change in the epidermis”, the “Observation with the naked eyes of treated skin” value (guinea pig back skin) was “significant apparent improvement, such as soft and shiny skin” and the “Increase of collagenous fiber bundles (%)” value (guinea pig back skin) was 18.1* %. The “Increase of collagen content in dermis (%)” value (guinea pig back skin) was 35.92* %, the MDA (MDA (malondialdehyde)) was 29.57* and the SOD [5] was 8.58*. For the same compound, the “Average tail moment (n = 50)” value (hairless mice [6]; [8]) was 14.968 ± 5.883, the “Prevention effect (%)” value (hairless mice [6]; [8]) was 40.9% and the “Average tail moment (n = 50)” value (hairless mice [6]; [9]) was 18.930 ± 5.969. The “Prevention effect (%)” value (hairless mice [6]; [9]) was 25.3%, the “Average tail moment (n = 50)” value (hairless mice [6]; [10]) was 18.363 ± 5.463 and the “Prevention effect (%)” value (hairless mice [6]; [10]) was 27.5%. For the same compound, the “Increase in cell activity (%)” value (fibroblasts [7]; 0.0004 M) was 25.7%.

With `O=C1O[C@H]([C@@H](O)CO)C(O)=C1O` [vitamin C, reference compound] the “Increase in cell activity (%)” value (fibroblasts [7]; 0.002 M) was 14.4%.

Work on Vitamin E [reference compound] yielded a Cell aging rate (Keratinocytes; 0.0004 M) of 20.1%, a Cell death rate (Keratinocytes; 0.0004 M) of 10.5% and a Cell growth rate (Keratinocytes; 0.0004 M) of 23.3%. The GSH-Px [3] was 28.60*, the Cell aging rate (fibroblasts [4]; 0.0004 M) was 22.8% and the Cell death rate (fibroblasts [4]; 0.0004 M) was 15.4%. The Cell growth rate (fibroblasts [4]; 0.0004 M) was 9.96%, the “Increase of collagenous fiber bundles (%)” value (guinea pig back skin) was 10.4* % and the “Increase of collagen content in dermis (%)” value (guinea pig back skin) was 29.86* %. For the same compound, the MDA (MDA (malondialdehyde)) was 26.71* and the SOD [5] was 7.17*.
